Assay [1] relates to mice. To be noted: cited from earlier work; for catalepsy: single 0.3 mg/kg injection, ref Kow et al., 2014.
In assay [2] the test system is CD1 female mouse brain lipidome. Kind of assay: Brain-region lipid levels (HPLC/MS/MS lipidomics) 2 h after single i.p. 3 mg/kg CP 55,940 vs vehicle. The format is in vivo. On the set-up: unit: moles per gram. The protocol: The Bloomington Institutional Animal Care and Use Committee of Indiana University reviewed and approved the animal procedures. Female mice from the CD1 strain were utilized to match our study examining THC’s effects on the brain lipidome ([Leishman et al., 2018]). Mice were given a single i.p. injection of either 3 mg/kg CP or 1:1:18 cremophor:ethanol:saline vehicle (please refer to the section “3 mg/kg CP Is Relevant for Synthetic Cannabinoid Abuse and Has Stronger Effects on the Female Mouse Brain Lipidome During Adolescence” for a justification of dose and use of female mice). Three different age groups were given injections: PND 35 and PND 50 adolescents, and adult mice (PND 113). At least eight mice in each age group received CP and at least eight received vehicle. Matching the THC study time course ([Leishman et al., 2018]), mice were sacrificed via rapid decapitation 2 h after injection. Brains were immediately removed and flash-frozen in liquid nitrogen, and then stored at -80°C until dissections were performed. Brains were dissected on an ice-cold dissection plate into the following regions: STR, HIPP, CER, THAL, CTX, HYP, MID, and STEM. These abbreviations for these brain areas will be used exclusively when discussing the results generated by these specific dissections. Each dissected area was immediately placed in liquid nitrogen and then stored at -80°C until used for lipid extraction.
Tissue extracts were performed as previously described ([Bradshaw et al., 2006]; [Stuart et al., 2013]; [Raboune et al., 2014]; [Leishman et al., 2016a],[b], [2017], [2018]). First, samples were shock frozen in liquid nitrogen, weighed, and transferred to a centrifuge tube. The mass of the largest sample was multiplied by 50 to determine how many milliliters of HPLC-grade methanol (Fisher, Fair Lawn, NJ, United States) to add. Then, samples were spiked with 500 pmol deuterium-labeled NAGly (d8NAGly; Cayman Chemical, Ann Arbor, MI, United States). Samples were placed on ice in darkness for 2 h then individually homogenized and centrifuged at 19,000 × g for 20 min at 20°C. […]
As previously described ([Bradshaw et al., 2006]; [Tan et al., 2006]; [Smoum et al., 2010]; [Stuart et al., 2013]; [Tortoriello et al., 2013]; [Raboune et al., 2014]; [Leishman et al., 2016a],[b], [2017], [2018]), samples were analyzed using an Applied Biosystems API 3000 triple quadrupole mass spectrometer with electrospray ionization (Foster City, CA, United States). […]
This screening library will be referred to as the lipidome when discussing data from this study. HPLC/MS/MS data were analyzed using Analyst software (Applied Biosystems) ([Bradshaw et al., 2006]; [Tan et al., 2006]; [Stuart et al., 2013]; [Tortoriello et al., 2013]; [Raboune et al., 2014]; [Leishman et al., 2016a],[b], [2017], [2018]). […]

Each structure is given as a SMILES string. Read-outs that look alike come from different tables or passages of the source.

With `CCCCCCC(C)(C)c1ccc([C@@H]2C[C@H](O)CC[C@H]2CCCO)c(O)c1` [CP 55,940], the figures for the catalepsy entry in assay [1] (C57 mice) and in assay [1] (CB1 KO mice) were “produced catalepsy” and “not”, respectively. Further, the ED50 for catalepsy in assay [1] (ref Little et al., 1988, Compton et al., 1992) is 0.4 mg/kg. Moreover, the “PGF2α level, Mean” value in assay [2] (cerebellum, PND 50 female mice, 3 mg/kg CP 55,940) is 6.11E-11; in assay [2] (hypothalamus, PND 35 adolescent female mice, 3 mg/kg), 3.47E-10; in assay [2] (midbrain, PND 35 WT adolescent female mice, 3 mg/kg), 5.59E-10; in assay [2] (thalamus, PND 50 female mice, 3 mg/kg CP 55,940) it was 1.3E-10.

The record behind these values is paper PMC6277767, “Broad and Region-Specific Impacts of the Synthetic Cannabinoid CP 55,940 in Adolescent and Adult Female Mouse Brains” (Frontiers in Molecular Neuroscience, 2018).
